Test results reported in patent publication US8207178B2 (priority 2007, dated 2012).

Key:
Test in all cases: microbe, parasite or virus in culture
Assay type in all cases: cell-based, human immunodeficiency virus type 1 (HIV-1)
wild type HIV-1 = settings: Human immunodeficiency virus 1, Hela-JC53
HIV-1 K103N-L100I mutant = settings: Human immunodeficiency virus 1, HeLa, read-out: EC50 mutant K103N-L100I, mutant K103N-L100I
HIV-1 K103N mutant = settings: Human immunodeficiency virus 1, HeLa, read-out: EC50 mutant K103N
HIV-1 Y188L mutant = settings: Human immunodeficiency virus 1, HeLa, read-out: EC50 mutant Y188L
HIV-1 K103N-Y181C mutant = settings: Human immunodeficiency virus 1, HeLa, read-out: EC50 mutant K103N-Y181C

| Compound | EC50 (wild type HIV-1) | EC50 (HIV-1 K103N-L100I mutant) | EC50 (HIV-1 K103N mutant) | EC50 (HIV-1 Y188L mutant) | EC50 (HIV-1 K103N-Y181C mutant) |
| --- | --- | --- | --- | --- | --- |
| Cc1cc(-c2ccnc(C#N)c2)cc(C)c1Oc1nc(Nc2ccc(C#N)cc2)nc2ccn(C)c12 [Example 6, 4-(4-(2-(4-Cyanophenylamino)-5-methyl-5H-pyrrolo[3,2-d]pyrimidin-4-yloxy)-3,5-dimethylphenyl)picolinonitrile] | 1 to 10 nM | 1 to 10 nM | 1 to 10 nM | > 10 nM | > 10 nM |
| Cc1cnccc1-c1cc(C)c(Oc2nc(Nc3ccc(C#N)cc3)nc3ccn(C)c23)c(C)c1 [Example 7, 4-(4-(2,6-Dimethyl-4-(3-methylpyridin-4-yl)phenoxy)-5-methyl-5H-pyrrolo [3,2-d]pyrmidin-2-ylamino)benzonitrile] | 1 to 10 nM | 1 to 10 nM | 1 to 10 nM | > 10 nM | 1 to 10 nM |
| Cc1cc(-c2cc(C)c(Oc3nc(Nc4ccc(C#N)cc4)nc4ccn(C)c34)c(C)c2)ccn1 [Example 8, 4-(4-(2,6-Dimethyl-4-(2-methylpyridin-4-yl)phenoxy)-5-methyl-5H-pyrrolo[3,2-d]pyrimidin-2-ylamino) benzonitrile] | 1 to 10 nM | > 10 nM | > 10 nM | > 10 nM | > 10 nM |
| Cc1cc(-c2cccc(C#N)c2)cc(C)c1Oc1nc(Nc2ccc(C#N)cc2)nc2ccn(C)c12 [Example 16, 4′-(2-(4-Cyanophenylamino)-5-methyl-5H-pyrrolo[3,2-d]pyrimidin-4-yloxy)-3′,5′-dimethylbiphenyl-3-carbonitrile] | 1 to 10 nM | > 10 nM | > 10 nM | > 10 nM | > 10 nM |
| Cc1cc(-c2cccc(C#N)n2)cc(C)c1Oc1nc(Nc2ccc(C#N)cc2)nc2ccn(C)c12 [Example 17, 6-(4-(2-(4-Cyanophenylamino)-5-methyl-5H-pyrrolo[3,2-d]pyrimidin-4-yloxy)-3,5-dimethylphenyl)picolinonitrile] | 1 to 10 nM | 1 to 10 nM | 1 to 10 nM | > 10 nM | > 10 nM |
| Cc1cc(-c2cn[nH]c2)cc(C)c1Oc1nc(Nc2ccc(C#N)cc2)nc2ccn(C)c12 [Example 24, 4-(4-(2,6-Dimethyl-4-(1H-pyrazol-4-yl)phenoxy)-5-methyl-5H-pyrrolo[3,2-d]pyrimidin-2-ylamino)-benzonitrile] | < 1 nM | 1 to 10 nM | 1 to 10 nM | 1 to 10 nM | > 10 nM |
| Cc1cc(-c2ccncc2)cc(C)c1Oc1nc(Nc2ccc(C#N)cc2)nc2nc[nH]c12 [Example 29, 4-(6-(2,6-Dimethyl-4-(pyridin-4-yl)phenoxy)-7H-purin-2-ylamino)benzonitrile] | < 1 nM | 1 to 10 nM | < 1 nM | 1 to 10 nM | 1 to 10 nM |
| Cc1cc(-c2ccc(C(N)=O)cc2)cc(C)c1Oc1nc(Nc2ccc(C#N)cc2)nc2nc[nH]c12 [Example 45, 4′-(2-(4-Cyanophenylamino)-7H-purin-6-yloxy)-3′,5′-dimethylbiphenyl-4-carboxamide] | < 1 nM | 1 to 10 nM | 1 to 10 nM | 1 to 10 nM | 1 to 10 nM |
| Cc1cc(-c2ccc(S(N)(=O)=O)cc2)cc(C)c1Oc1nc(Nc2ccc(C#N)cc2)nc2nc[nH]c12 [Example 46, 4′-(2-(4-Cyanophenylamino)-7H-purin-6-yloxy)-3′,5′-dimethylbiphenyl-4-sulfonamide] | 1 to 10 nM | > 10 nM | 1 to 10 nM | > 10 nM | 1 to 10 nM |
| Cc1cc(-c2ccc(C(N)=O)cc2F)cc(C)c1Oc1nc(Nc2ccc(C#N)cc2)nc2ccn(C)c12 [Example 50, 4′-(2-(4-Cyanophenylamino)-5-methyl-5H-pyrrolo[3,2-d]pyrimidin-4-yloxy)-2-fluoro-3′,5′-dimethylbiphenyl-4-carboxamide] | 1 to 10 nM | 1 to 10 nM | 1 to 10 nM | > 10 nM | 1 to 10 nM |
| Cc1cc(-c2ccc(S(N)(=O)=O)cc2)cc(C)c1Oc1nc(Nc2ccc(C#N)cc2)nc2ncn(C)c12 [Example 53, 4′-(2-(4-Cyanophenylamino)-7-methyl-7H-purin-6-yloxy)-3′,5′-dimethylbiphenyl-4-sulfonamide] | 1 to 10 nM | 1 to 10 nM | 1 to 10 nM | > 10 nM | 1 to 10 nM |
| Cc1cc(-c2ccc(C(N)=O)cn2)cc(C)c1Oc1nc(Nc2ccc(C#N)cc2)nc2ccn(C)c12 [Example 61, 6-(4-(2-(4-Cyanophenylamino)-5-methyl-5H-pyrrolo[3,2-d]pyrimidin-4-yloxy)-3,5-dimethyl-phenyl)nicotinamide] | 1 to 10 nM | 1 to 10 nM | 1 to 10 nM | 1 to 10 nM | > 10 nM |
| Cc1cc(-c2ccc(C(N)=O)cc2)cc(C)c1Oc1nc(Nc2ccc(C#N)cc2)nc2ccn(C)c12 [Example 78, 4′-(2-(4-cyanophenylamino)-5-methyl-5H-pyrrolo[3,2-d]pyrimidin-4-yloxy)-3′,5′-dimethylbiphenyl-4-carboxamide] | 1 to 10 nM | 1 to 10 nM | 1 to 10 nM | 1 to 10 nM | 1 to 10 nM |
| Cc1cc(-c2ccc(C(N)=O)cc2)cc(C)c1Oc1nc(Nc2ccc(C#N)cc2)nc2ncn(C)c12 [Example 111, 4′-(2-(4-Cyanophenylamino)-7-methyl-7H-purin-6-yloxy)-3′,5′-dimethylbiphenyl-4-carboxamide] | 1 to 10 nM | 1 to 10 nM | 1 to 10 nM | > 10 nM | > 10 nM |
| Cc1cc(-c2ccc(C(N)=O)cn2)cc(C)c1Oc1nc(Nc2ccc(C#N)cc2)nc2ncn(C)c12 [Example 123, 6-(4-(2-(4-cyanophenylamino)-7-methyl-7H-purin-6-yloxy)-3,5-dimethylphenyl)nicotinamide] | 1 to 10 nM | > 10 nM | 1 to 10 nM | 1 to 10 nM | > 10 nM |
